# From ChEMBL document CHEMBL3875144, “Novel fluorinated pyrrolomycins as potent anti-staphylococcal biofilm agents: Design, synthesis, pharmacokinetics and antibacterial activities” (Eur J Med Chem, 2016)
# The source made the active and inactive calls. The calls are words filed in the database; no cut-off is given here.
# Key:
# [1] = Selectivity index, ratio of IC50 for cytotoxicity against human HeLa cells to MIC for antibacterial activity against methicillin-resistant Staphylococcus aureus USA300 JE2; format: toxicity, cell-based; conditions: read-out: Selectivity Index
# [2] = Cytotoxicity against human HeLa cells assessed as decrease in cell viability measured after 24 hrs by MTS assay; format: toxicity, cell-based
# [3] = Antibacterial activity against methicillin-resistant Staphylococcus aureus USA300 JE2 incubated for 20 to 24 hrs by broth microdilution assay; format: functional, Staphylococcus aureus subsp. aureus USA300
# [4] = Bactericidal activity against methicillin-resistant Staphylococcus aureus USA300 JE2 incubated up to 24 hrs; format: functional, Staphylococcus aureus subsp. aureus USA300; conditions: JE2, 24 h
# [5] = tested on: Staphylococcus aureus subsp. aureus USA300; assay: Bactericidal activity against methicillin-resistant Staphylococcus aureus USA300 JE2 at 8 ug/ml incubated up to 24 hrs relative to control; format: functional
# [6] = tested on: Staphylococcus aureus subsp. aureus USA300; assay: Antibiofilm activity against methicillin-resistant Staphylococcus aureus USA300 JE2 at 32 ug/ml measured at 24 hrs post dose relative to control; format: functional
# [7] = tested on: Staphylococcus aureus subsp. aureus USA300; assay: Antibiofilm activity against methicillin-resistant Staphylococcus aureus USA300 JE2 at 32 ug/ml measured at 48 hrs post dose relative to control; format: functional
# [8] = tested on: Staphylococcus aureus subsp. aureus USA300; assay: Antibiofilm activity against methicillin-resistant Staphylococcus aureus USA300 JE2 at 8 ug/ml measured at 24 hrs post dose relative to control; format: functional
# [9] = Plasma concentration in Balc/c mouse at 1 mg/kg, iv up to 72 hrs by LC-MS/MS method; format: ADME, organism-based
# [10] = tested on: Staphylococcus aureus subsp. aureus USA300; assay: Antibiofilm activity against methicillin-resistant Staphylococcus aureus USA300 JE2 at 8 ug/ml measured at 48 hrs post dose relative to control; format: functional
# [11] = Tmax in Balc/c mouse at 10 mg/kg administered via oral gavage by LC-MS/MS method; format: ADME, organism-based; conditions: in vivo
# [12] = Plasma concentration in Balc/c mouse at 10 mg/kg administered via oral gavage up to 72 hrs by LC-MS/MS method; format: ADME, organism-based
# [13] = tested on: Staphylococcus aureus subsp. aureus USA300; assay: Antibiofilm activity against methicillin-resistant Staphylococcus aureus USA300 JE2 assessed as disruption of preformed biofilms at 8 ug/ml within 5 days; format: functional
Structure (SMILES),selectivity ratio [1],IC50 at 24 h [2] [µM],MIC [3] [µg/mL],other results
O=C(c1ccccc1O)c1[nH]c(Cl)c(Cl)c1-n1c(C(=O)c2cc(F)ccc2O)cc(Cl)c1Cl,> 280,> 52.8,0.19,–
COc1c(F)cc(F)cc1C(=O)c1ccc[nH]1,–,–,> 4,–
O=C(c1ccc[nH]1)c1cc(Cl)cc(Cl)c1O,–,–,> 4,–
O=C(c1cc(Br)c(Br)[nH]1)c1cc(Cl)cc(Cl)c1O,> 567,> 41.4,0.073,MBC [4]: 8 µg/mL; Activity [5]: 92.5%
CN[C@H](CC(C)C)C(=O)N[C@H]1C(=O)N[C@@H](CC(N)=O)C(=O)N[C@H]2C(=O)N[C@H]3C(=O)N[C@H](C(=O)N[C@H](C(=O)O)c4cc(O)cc(O)c4-c4cc3ccc4O)[C@H](O)c3ccc(c(Cl)c3)Oc3cc2cc(c3O[C@@H]2O[C@H](CO)[C@@H](O)[C@H](O)[C@H]2O[C@H]2C[C@](C)(N)[C@H](O)[C@H](C)O2)Oc2ccc(cc2Cl)[C@H]1O [VANCOMYCIN],–,–,2,MBC [4]: 8 µg/mL; Activity [6]: 11%; Activity [7]: 39%
COc1c(F)cc(F)cc1C(=O)c1[nH]c(Br)c(Br)c1Br,–,–,3,–
O=C(c1cc(Br)c[nH]1)c1cc(Cl)cc(Cl)c1O,–,–,> 4,–
O=C(c1cc(Cl)cc(Cl)c1O)c1[nH]c(F)c(Br)c1Br,> 229,> 43.2,0.19,–
O=C(c1cc(F)cc(F)c1O)c1[nH]c(Br)c(Br)c1Br,> 275,> 46,0.17,–
O=C(c1ccccc1O)c1[nH]c(Cl)c(Cl)c1-n1c(C(=O)c2ccc(Cl)cc2O)cc(Cl)c1Cl,> 524,> 40.9,0.078,–
COc1c(F)cc(F)cc1C(=O)c1c(Br)c(Br)c(Br)n1C,–,–,> 4,–
Cn1c(Br)c(Br)c(Br)c1C(=O)c1cc(F)cc(F)c1O,–,–,> 4,–
O=C(c1ccc[nH]1)c1cc(F)cc(F)c1O,–,–,> 4,–
O=C(c1cc(Br)c(F)[nH]1)c1cc(Cl)cc(Cl)c1O,> 484,> 35.3,0.073,Activity [8]: 84%; MBC [4]: 4 µg/mL; concentration at 72 h [9]: ≥ 0.8 ng/mL; Activity [10]: 97%; Tmax [11]: 15 min; concentration at 72 h [12]: ≥ 0.8 ng/mL; Activity [13]: Active
